Reference: article PMC9090415, “Discovery of small molecule inhibitors of Plasmodium falciparum apicoplast DNA polymerase” (Journal of Enzyme Inhibition and Medicinal Chemistry, 2022)

Target: P. falciparum apicoplast DNA polymerase (Pf-apPOL) (Plasmodium falciparum, UniProt Q8ILY1)
Assay: Fluorescence-based high-throughput DNA polymerase assay (molecular beacon), primary screen and dose-response;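 on % inhibition ApPOL 90': test concentration in µM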;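 on % inhibition apPOL 180': test concentration in µM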
Assay type: biochemical
Procedure, shortened: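 Single-point screening used 10 µM compound with 20 nM polymerase, 20 nM hairpin substrate and 6 µM dNTPs for 90 min at 25 °C. Confirmatory titrations (2.5–80 µM) followed fluorescence at three times, and IC50 was derived from a fit including a cooperativity term n.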

Chain of P. falciparum apicoplast DNA polymerase (Pf-apPOL) (Q8ILY1 entry or part of it): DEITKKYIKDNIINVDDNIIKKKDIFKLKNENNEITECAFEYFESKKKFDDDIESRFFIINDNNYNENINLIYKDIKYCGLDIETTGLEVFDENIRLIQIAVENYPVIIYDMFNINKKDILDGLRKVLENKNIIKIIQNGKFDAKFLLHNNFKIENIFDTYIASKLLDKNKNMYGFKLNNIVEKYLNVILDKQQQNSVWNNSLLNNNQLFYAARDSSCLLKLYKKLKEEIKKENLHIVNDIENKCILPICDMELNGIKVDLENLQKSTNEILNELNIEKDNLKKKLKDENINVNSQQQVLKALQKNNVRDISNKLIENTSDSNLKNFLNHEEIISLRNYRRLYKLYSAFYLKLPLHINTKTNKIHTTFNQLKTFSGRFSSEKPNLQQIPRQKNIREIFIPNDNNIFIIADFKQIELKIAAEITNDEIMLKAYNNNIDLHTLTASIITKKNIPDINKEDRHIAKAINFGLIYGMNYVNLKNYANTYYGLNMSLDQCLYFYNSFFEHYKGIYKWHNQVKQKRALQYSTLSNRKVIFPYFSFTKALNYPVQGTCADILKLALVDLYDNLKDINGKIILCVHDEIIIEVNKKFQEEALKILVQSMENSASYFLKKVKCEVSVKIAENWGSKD

O=c1cc(-c2ccccc2)oc2c(O)c(O)ccc12 [Molecule 84, Oc1ccc2c(c1O)oc(cc2=O)c1ccccc1]
DNA Pol (186 hits, value of the hit list (primary screen); unit not given; 90 min, 10 µM): 55 | % inhibition Apo pol 10' (DRC-1; 10'; concentration 2.5): 14.1303% | % inhibition Apo pol 10' (DRC-1; 10'; concentration 5): 19.657% | % inhibition Apo pol 10' (DRC-1; 10'; concentration 10): 33.8432% | % inhibition Apo pol 10' (DRC-1; 10'; concentration 20): 42.9919% | % inhibition Apo pol 10' (DRC-1; 10'; concentration 40): 51.8731% | % inhibition Apo pol 10' (DRC-1; 10'; concentration 80): 57.9256% | % inhibition Apol 90' (DRC-1; 90'; concentration 2.5): 6.487% | % inhibition Apol 90' (DRC-1; 90'; concentration 5): 3.595% | % inhibition Apol 90' (DRC-1; 90'; concentration 10): 11.2996% | % inhibition Apol 90' (DRC-1; 90'; concentration 20): 16.5407% | % inhibition Apol 90' (DRC-1; 90'; concentration 40): 24.8113% | % inhibition Apol 90' (DRC-1; 90'; concentration 80): 29.7853% | % inhibition apPOL 180' (DRC-1; 180'; concentration 2.5): 1.7844% | % inhibition apPOL 180' (DRC-1; 180'; concentration 5): -2.772% | % inhibition apPOL 180' (DRC-1; 180'; concentration 10): 4.166% | % inhibition apPOL 180' (DRC-1; 180'; concentration 20): 7.699% | % inhibition apPOL 180' (DRC-1; 180'; concentration 40): 14.2771% | % inhibition apPOL 180' (DRC-1; 180'; concentration 80): 18.1576% | % inhibition Apo pol 5' (DRC-2, 5', concentration 2.5): 12% | % inhibition Apo pol 5' (DRC-2, 5', concentration 5): 18% | % inhibition Apo pol 5' (DRC-2, 5', concentration 10): 26% | % inhibition Apo pol 5' (DRC-2, 5', concentration 20): 32% | % inhibition Apo pol 5' (DRC-2, 5', concentration 40): 41% | % inhibition Apo pol 5' (DRC-2, 5', concentration 80): 42% | % inhibition Apol 40' (DRC-2, 40', concentration 2.5): 10% | % inhibition Apol 40' (DRC-2, 40', concentration 5): 13% | % inhibition Apol 40' (DRC-2, 40', concentration 10): 21% | % inhibition Apol 40' (DRC-2, 40', concentration 20): 23% | % inhibition Apol 40' (DRC-2, 40', concentration 40): 32% | % inhibition Apol 40' (DRC-2, 40', concentration 80): 36% | % inhibition ApPOL 90' (DRC-2, 90', concentration 2.5): 8% | % inhibition ApPOL 90' (DRC-2, 90', concentration 5): 10% | % inhibition ApPOL 90' (DRC-2, 90', concentration 10): 16% | % inhibition ApPOL 90' (DRC-2, 90', concentration 20): 17% | % inhibition ApPOL 90' (DRC-2, 90', concentration 40): 26% | % inhibition ApPOL 90' (DRC-2, 90', concentration 80): 32% | % inhibition apPOL 180' (DRC-2, 180', concentration 2.5): 1.74% | % inhibition apPOL 180' (DRC-2, 180', concentration 5): 3.63% | % inhibition apPOL 180' (DRC-2, 180', concentration 10): 7.41% | % inhibition apPOL 180' (DRC-2, 180', concentration 20): 6% | % inhibition apPOL 180' (DRC-2, 180', concentration 40): 16% | % inhibition apPOL 180' (DRC-2, 180', concentration 80): 23% | % inhibition Apo pol 5' (DRC-2; 5'; concentration 10): 26% | % inhibition Apo pol 5' (DRC-2; 5'; concentration 20): 32% | % inhibition Apol 40' (DRC-2; 40'; concentration 2.5): 10% | % inhibition Apol 40' (DRC-2; 40'; concentration 20): 23% | % inhibition Apol 40' (DRC-2; 40'; concentration 40): 32% | % inhibition ApPOL 90' (DRC-2; 90'; concentration 5): 10% | % inhibition ApPOL 90' (DRC-2; 90'; concentration 10): 16% | % inhibition ApPOL 90' (DRC-2; 90'; concentration 40): 26% | % inhibition ApPOL 90' (DRC-2; 90'; concentration 80): 32% | % inhibition apPOL 180' (DRC-2; 180'; concentration 40): 16% | % inhibition apPOL 180' (DRC-2; 180'; concentration 80): 23% | DNA Pol (primary screen value, 'DNA Pol' only; 90 min, 10 µM): 55

Cc1ccc(CNC(=O)c2cnn3c(O)cc(CSc4ccc(Cl)cc4)nc23)cc1 [Molecule 99, Cc1ccc(cc1)CNC(=O)c1cnn2c1nc(CSc1ccc(cc1)Cl)cc2O]
DNA Pol ('DNA Pol' of the 186 hits list (screen value); 90 min, 10 µM): 67 | % inhibition Apo pol 10' (DRC-1; 10'; conc 2.5): 17.7402% | % inhibition Apo pol 10' (DRC-1; 10'; conc 5): 14.3% | % inhibition Apo pol 10' (DRC-1; 10'; conc 10): 59.9515% | % inhibition Apo pol 10' (DRC-1; 10'; conc 20): 87.9776% | % inhibition Apo pol 10' (DRC-1; 10'; conc 40): 95.4401% | % inhibition Apo pol 10' (DRC-1; 10'; conc 80): 98.3006% | % inhibition Apol 90' (DRC-1; 90'; conc 2.5): 16.0319% | % inhibition Apol 90' (DRC-1; 90'; conc 5): 10.3916% | % inhibition Apol 90' (DRC-1; 90'; conc 10): 57.1077% | % inhibition Apol 90' (DRC-1; 90'; conc 20): 85.3091% | % inhibition Apol 90' (DRC-1; 90'; conc 40): 92.0772% | % inhibition Apol 90' (DRC-1; 90'; conc 80): 96.0616% | % inhibition apPOL 180' (DRC-1; 180'; conc 2.5): 7.151% | % inhibition apPOL 180' (DRC-1; 180'; conc 5): 1.596% | % inhibition apPOL 180' (DRC-1; 180'; conc 10): 45.1863% | % inhibition apPOL 180' (DRC-1; 180'; conc 20): 80.2247% | % inhibition apPOL 180' (DRC-1; 180'; conc 40): 89.0926% | % inhibition apPOL 180' (DRC-1; 180'; conc 80): 94.6304% | % inhibition Apo pol 5' (DRC-2; 5'; conc 2.5): 29% | % inhibition Apo pol 5' (DRC-2; 5'; conc 5): 42% | % inhibition Apo pol 5' (DRC-2; 5'; conc 10): 44% | % inhibition Apo pol 5' (DRC-2; 5'; conc 20): 58% | % inhibition Apo pol 5' (DRC-2; 5'; conc 40): 67% | % inhibition Apo pol 5' (DRC-2; 5'; conc 80): 68% | % inhibition Apo pol 5' (DRC-2; 5'; concentration 80): 68% | % inhibition Apol 40' (DRC-2; 40'; conc 2.5): 32% | % inhibition Apol 40' (DRC-2; 40'; conc 5): 49% | % inhibition Apol 40' (DRC-2; 40'; conc 10): 50% | % inhibition Apol 40' (DRC-2; 40'; conc 20): 68% | % inhibition Apol 40' (DRC-2; 40'; conc 40): 78% | % inhibition Apol 40' (DRC-2; 40'; conc 80): 81% | % inhibition Apol 40' (DRC-2; 40'; concentration 5): 49% | % inhibition Apol 40' (DRC-2; 40'; concentration 20): 68% | % inhibition ApPOL 90' (DRC-2; 90'; conc 2.5): 31% | % inhibition ApPOL 90' (DRC-2; 90'; conc 5): 49% | % inhibition ApPOL 90' (DRC-2; 90'; conc 10): 49% | % inhibition ApPOL 90' (DRC-2; 90'; conc 20): 69% | % inhibition ApPOL 90' (DRC-2; 90'; conc 40): 80% | % inhibition ApPOL 90' (DRC-2; 90'; conc 80): 84% | % inhibition ApPOL 90' (DRC-2; 90'; concentration 5): 49% | % inhibition ApPOL 90' (DRC-2; 90'; concentration 10): 49% | % inhibition ApPOL 90' (DRC-2; 90'; concentration 40): 80% | % inhibition apPOL 180' (DRC-2; 180'; conc 2.5): 25% | % inhibition apPOL 180' (DRC-2; 180'; conc 5): 40% | % inhibition apPOL 180' (DRC-2; 180'; conc 10): 41% | % inhibition apPOL 180' (DRC-2; 180'; conc 20): 66% | % inhibition apPOL 180' (DRC-2; 180'; conc 40): 80% | % inhibition apPOL 180' (DRC-2; 180'; conc 80): 86% | % inhibition apPOL 180' (DRC-2; 180'; concentration 40): 80% | DNA Pol (primary screen value, "DNA Pol"; 90 min, 10 µM): 67

COc1ccc(-c2c(C(F)(F)F)nn3c(=O)cc(-c4cccc([N+](=O)[O-])c4)[nH]c23)cc1 [Molecule 16, COc1ccc(cc1)c1c2[nH]c(cc(=O)n2nc1C(F)(F)F)c1cccc(c1)N(=O)=O]
DNA Pol ('DNA Pol' of the 186 hits list (primary screen result); unit not given; 90 min, 10 µM): 98 | % inhibition Apo pol 10' (DRC-1; 10'; concentration 2.5): 21.756% | % inhibition Apo pol 10' (DRC-1; 10'; concentration 5): 31.6281% | % inhibition Apo pol 10' (DRC-1; 10'; concentration 10): 53.4209% | % inhibition Apo pol 10' (DRC-1; 10'; concentration 20): 92.9592% | % inhibition Apo pol 10' (DRC-1; 10'; concentration 40): 96.2671% | % inhibition Apo pol 10' (DRC-1; 10'; concentration 80): 97.8824% | % inhibition Apol 90' (DRC-1; 90'; concentration 2.5): 17.6214% | % inhibition Apol 90' (DRC-1; 90'; concentration 5): 24.4098% | % inhibition Apol 90' (DRC-1; 90'; concentration 10): 48.4616% | % inhibition Apol 90' (DRC-1; 90'; concentration 20): 90.3483% | % inhibition Apol 90' (DRC-1; 90'; concentration 40): 97.371% | % inhibition Apol 90' (DRC-1; 90'; concentration 80): 97.5048% | % inhibition apPOL 180' (DRC-1; 180'; concentration 2.5): 12.6653% | % inhibition apPOL 180' (DRC-1; 180'; concentration 5): 14.5865% | % inhibition apPOL 180' (DRC-1; 180'; concentration 10): 38.3358% | % inhibition apPOL 180' (DRC-1; 180'; concentration 20): 87.8097% | % inhibition apPOL 180' (DRC-1; 180'; concentration 40): 96.7933% | % inhibition apPOL 180' (DRC-1; 180'; concentration 80): 96.9215% | % inhibition Apol 40' (DRC-2, 40', concentration 2.5 (unit not given)): 13% | % inhibition Apol 40' (DRC-2, 40', concentration 40 (unit not given)): 75% | % inhibition ApPOL 90' (DRC-2, 90', concentration 5 (unit not given)): 14% | % inhibition apPOL 180' (DRC-2, 180', concentration 20 (unit not given)): 65% | % inhibition apPOL 180' (DRC-2, 180', concentration 40 (unit not given)): 75% | % inhibition Apo pol 5' (DRC-2; 5'; concentration 2.5): 10% | % inhibition Apo pol 5' (DRC-2; 5'; concentration 5): 14% | % inhibition Apo pol 5' (DRC-2; 5'; concentration 5 (unit not given)): 14% | % inhibition Apo pol 5' (DRC-2; 5'; concentration 10): 28% | % inhibition Apo pol 5' (DRC-2; 5'; concentration 20): 58% | % inhibition Apo pol 5' (DRC-2; 5'; concentration 40): 62% | % inhibition Apo pol 5' (DRC-2; 5'; concentration 80): 65% | % inhibition Apo pol 5' (DRC-2; 5'; concentration 80 (unit not given)): 65% | % inhibition Apol 40' (DRC-2; 40'; concentration 2.5): 13% | % inhibition Apol 40' (DRC-2; 40'; concentration 5): 16% | % inhibition Apol 40' (DRC-2; 40'; concentration 10): 33% | % inhibition Apol 40' (DRC-2; 40'; concentration 20): 68% | % inhibition Apol 40' (DRC-2; 40'; concentration 40): 75% | % inhibition Apol 40' (DRC-2; 40'; concentration 80): 79% | % inhibition ApPOL 90' (DRC-2; 90'; concentration 2.5): 13% | % inhibition ApPOL 90' (DRC-2; 90'; concentration 2.5 (unit not given)): 13% | % inhibition ApPOL 90' (DRC-2; 90'; concentration 5): 14% | % inhibition ApPOL 90' (DRC-2; 90'; concentration 10): 31% | % inhibition ApPOL 90' (DRC-2; 90'; concentration 20): 69% | % inhibition ApPOL 90' (DRC-2; 90'; concentration 40): 77% | % inhibition ApPOL 90' (DRC-2; 90'; concentration 80): 83% | % inhibition apPOL 180' (DRC-2; 180'; concentration 2.5): 9% | % inhibition apPOL 180' (DRC-2; 180'; concentration 5): 7.4% | % inhibition apPOL 180' (DRC-2; 180'; concentration 10): 23% | % inhibition apPOL 180' (DRC-2; 180'; concentration 20): 65% | % inhibition apPOL 180' (DRC-2; 180'; concentration 40): 75% | % inhibition apPOL 180' (DRC-2; 180'; concentration 80): 85% | DNA Pol (primary screen value of the library well; unit not given; 90 min, 10 µM): 98
